Test results from ChEMBL document CHEMBL4507267 (2021).

How the values were obtained:
[1] = target: Atypical kinase COQ8A, mitochondrial (Homo sapiens) (UniProt Q8NI60); conditions: Compound concentration 1000.0 nM
[2] = target: NUAK family SNF1-like kinase 1 (Homo sapiens) (UniProt O60285); conditions: Compound concentration 1000.0 nM
[3] = target: Calcium/calmodulin-dependent protein kinase type 1G (Homo sapiens) (UniProt Q96NX5); conditions: Compound concentration 1000.0 nM
[4] = target: Calcium/calmodulin-dependent protein kinase type II subunit delta (Homo sapiens) (UniProt Q13557); conditions: Compound concentration 1000.0 nM
[5] = target: Cyclin-dependent kinase 11A (Homo sapiens) (UniProt Q9UQ88); conditions: Compound concentration 1000.0 nM
[6] = target: Cyclin-dependent kinase 3 (Homo sapiens) (UniProt Q00526); conditions: Compound concentration 1000.0 nM
[7] = target: Cyclin-dependent kinase-like 1 (Homo sapiens) (UniProt Q00532); conditions: Compound concentration 1000.0 nM
[8] = target: Citron Rho-interacting kinase (Homo sapiens) (UniProt O14578); conditions: Compound concentration 1000.0 nM
[9] = target: Death-associated protein kinase 2 (Homo sapiens) (UniProt Q9UIK4); conditions: Compound concentration 1000.0 nM
[10] = target: Death-associated protein kinase 3 (Homo sapiens) (UniProt O43293); conditions: Compound concentration 1000.0 nM
[11] = target: Serine/threonine-protein kinase DCLK1 (Homo sapiens) (UniProt O15075); conditions: Compound concentration 1000.0 nM
[12] = system: Epidermal growth factor receptor (Homo sapiens), P00533 [UNDEFINED MUTATION]; conditions: Compound concentration 1000.0 nM
[13] = system: Epidermal growth factor receptor (Homo sapiens), P00533 [UNDEFINED MUTATION]; conditions: Compound concentration 1000.0 nM; remark: listed apart in the source
[14] = target: Fibroblast growth factor receptor 2 (Homo sapiens) (UniProt P21802); conditions: Compound concentration 1000.0 nM
[15] = target: Serine/threonine-protein kinase haspin (Homo sapiens) (UniProt Q8TF76); conditions: Compound concentration 1000.0 nM
[16] = target: Homeodomain-interacting protein kinase 4 (Homo sapiens) (UniProt Q8NE63); conditions: Compound concentration 1000.0 nM
[17] = target: Inhibitor of nuclear factor kappa-B kinase subunit alpha (Homo sapiens) (UniProt O15111); conditions: Compound concentration 1000.0 nM
[18] = target: Tyrosine-protein kinase JAK1 (Homo sapiens) (UniProt P23458); conditions: Compound concentration 1000.0 nM
[19] = target: Leucine-rich repeat serine/threonine-protein kinase 2 (Homo sapiens) (UniProt Q5S007); conditions: Compound concentration 1000.0 nM
[20] = target: Mitogen-activated protein kinase kinase kinase kinase 2 (Homo sapiens) (UniProt Q12851); conditions: Compound concentration 1000.0 nM
[21] = target: Mitogen-activated protein kinase kinase kinase kinase 4 (Homo sapiens) (UniProt O95819); conditions: Compound concentration 1000.0 nM
[22] = target: Serine/threonine-protein kinase MARK2 (Homo sapiens) (UniProt Q7KZI7); conditions: Compound concentration 1000.0 nM
[23] = target: Dual specificity mitogen-activated protein kinase kinase 5 (Homo sapiens) (UniProt Q13163); conditions: Compound concentration 1000.0 nM
[24] = target: MAP kinase-interacting serine/threonine-protein kinase 2 (Homo sapiens) (UniProt Q9HBH9); conditions: Compound concentration 1000.0 nM
[25] = target: Mitogen-activated protein kinase kinase kinase 10 (Homo sapiens) (UniProt Q02779); conditions: Compound concentration 1000.0 nM
[26] = target: Serine/threonine-protein kinase MRCK beta (Homo sapiens) (UniProt Q9Y5S2); conditions: Compound concentration 1000.0 nM
[27] = target: Serine/threonine-protein kinase 24 (Homo sapiens) (UniProt Q9Y6E0); conditions: Compound concentration 1000.0 nM
[28] = target: Myosin light chain kinase family member 4 (Homo sapiens) (UniProt Q86YV6); conditions: Compound concentration 1000.0 nM
[29] = target: Serine/threonine-protein kinase NIM1 (Homo sapiens) (UniProt Q8IY84); conditions: Compound concentration 1000.0 nM
[30] = target: Mitogen-activated protein kinase 11 (Homo sapiens) (UniProt Q15759); conditions: Compound concentration 1000.0 nM
[31] = target: Cyclin-dependent kinase 17 (Homo sapiens) (UniProt Q00537); conditions: Compound concentration 1000.0 nM
[32] = target: Phosphatidylinositol 4-phosphate 5-kinase type-1 gamma (Homo sapiens) (UniProt O60331); conditions: Compound concentration 1000.0 nM
[33] = target: Serine/threonine-protein kinase D2 (Homo sapiens) (UniProt Q9BZL6); conditions: Compound concentration 1000.0 nM
[34] = target: Receptor-interacting serine/threonine-protein kinase 2 (Homo sapiens) (UniProt O43353); conditions: Compound concentration 1000.0 nM
[35] = target: Ribosomal protein S6 kinase alpha-4 (Homo sapiens) (UniProt O75676); conditions: Compound concentration 1000.0 nM
[36] = target: Ribosomal protein S6 kinase alpha-1 (Homo sapiens) (UniProt Q15418); conditions: Compound concentration 1000.0 nM
[37] = target: Ribosomal protein S6 kinase beta-1 (Homo sapiens) (UniProt P23443); conditions: Compound concentration 1000.0 nM
[38] = target: NUAK family SNF1-like kinase 2 (Homo sapiens) (UniProt Q9H093); conditions: Compound concentration 1000.0 nM
[39] = target: SNF-related serine/threonine-protein kinase (Homo sapiens) (UniProt Q9NRH2); conditions: Compound concentration 1000.0 nM
[40] = target: Serine/threonine-protein kinase 36 (Homo sapiens) (UniProt Q9NRP7); conditions: Compound concentration 1000.0 nM
[41] = target: High affinity nerve growth factor receptor (Homo sapiens) (UniProt P04629); conditions: Compound concentration 1000.0 nM
[42] = target: D(4) dopamine receptor (Homo sapiens) (UniProt P21917); conditions: Compound concentration 10.0 uM
[43] = target: Sodium-dependent serotonin transporter (Homo sapiens) (UniProt P31645); conditions: Compound concentration 10.0 uM
[44] = target: Kappa-type opioid receptor (Homo sapiens) (UniProt P41145); conditions: Compound concentration 10.0 uM
[45] = target: Beta-1 adrenergic receptor (Homo sapiens) (UniProt P08588); conditions: Compound concentration 10.0 uM

Chain of Epidermal growth factor receptor (Homo sapiens), P00533 [UNDEFINED MUTATION] (P00533 whole entry, looked up, change not shown): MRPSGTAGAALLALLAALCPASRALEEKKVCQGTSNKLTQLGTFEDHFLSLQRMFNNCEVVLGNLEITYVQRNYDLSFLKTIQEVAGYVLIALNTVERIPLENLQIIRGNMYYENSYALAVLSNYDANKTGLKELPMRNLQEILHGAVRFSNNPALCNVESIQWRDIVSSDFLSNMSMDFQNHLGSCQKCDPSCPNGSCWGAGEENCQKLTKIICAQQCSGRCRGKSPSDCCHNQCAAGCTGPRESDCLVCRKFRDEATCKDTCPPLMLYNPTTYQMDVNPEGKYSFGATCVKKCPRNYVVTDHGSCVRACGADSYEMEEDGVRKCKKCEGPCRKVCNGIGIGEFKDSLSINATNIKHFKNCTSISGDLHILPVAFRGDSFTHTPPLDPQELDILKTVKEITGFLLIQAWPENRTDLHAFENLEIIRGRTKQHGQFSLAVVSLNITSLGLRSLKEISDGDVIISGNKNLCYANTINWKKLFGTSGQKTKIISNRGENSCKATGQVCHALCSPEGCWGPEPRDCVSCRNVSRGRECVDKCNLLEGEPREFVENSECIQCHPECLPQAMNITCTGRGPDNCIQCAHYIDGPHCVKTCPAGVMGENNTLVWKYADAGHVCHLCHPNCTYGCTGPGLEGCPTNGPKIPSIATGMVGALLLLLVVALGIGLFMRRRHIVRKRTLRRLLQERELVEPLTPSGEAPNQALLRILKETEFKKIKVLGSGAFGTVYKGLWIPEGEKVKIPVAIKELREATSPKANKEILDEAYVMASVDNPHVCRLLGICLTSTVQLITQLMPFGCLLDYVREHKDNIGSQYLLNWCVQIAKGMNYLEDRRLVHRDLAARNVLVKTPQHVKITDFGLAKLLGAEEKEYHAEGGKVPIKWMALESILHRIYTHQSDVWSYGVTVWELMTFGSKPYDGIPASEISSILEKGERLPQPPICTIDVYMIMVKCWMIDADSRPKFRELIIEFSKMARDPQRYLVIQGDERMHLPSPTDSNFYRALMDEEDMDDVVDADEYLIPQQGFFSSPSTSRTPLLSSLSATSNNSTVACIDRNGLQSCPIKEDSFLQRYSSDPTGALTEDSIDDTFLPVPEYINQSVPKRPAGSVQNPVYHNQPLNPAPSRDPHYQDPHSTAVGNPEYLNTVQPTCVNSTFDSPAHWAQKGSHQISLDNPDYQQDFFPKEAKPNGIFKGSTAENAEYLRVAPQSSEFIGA
Chain of Mitogen-activated protein kinase kinase kinase 10 (Homo sapiens) (Q02779 whole entry, looked up): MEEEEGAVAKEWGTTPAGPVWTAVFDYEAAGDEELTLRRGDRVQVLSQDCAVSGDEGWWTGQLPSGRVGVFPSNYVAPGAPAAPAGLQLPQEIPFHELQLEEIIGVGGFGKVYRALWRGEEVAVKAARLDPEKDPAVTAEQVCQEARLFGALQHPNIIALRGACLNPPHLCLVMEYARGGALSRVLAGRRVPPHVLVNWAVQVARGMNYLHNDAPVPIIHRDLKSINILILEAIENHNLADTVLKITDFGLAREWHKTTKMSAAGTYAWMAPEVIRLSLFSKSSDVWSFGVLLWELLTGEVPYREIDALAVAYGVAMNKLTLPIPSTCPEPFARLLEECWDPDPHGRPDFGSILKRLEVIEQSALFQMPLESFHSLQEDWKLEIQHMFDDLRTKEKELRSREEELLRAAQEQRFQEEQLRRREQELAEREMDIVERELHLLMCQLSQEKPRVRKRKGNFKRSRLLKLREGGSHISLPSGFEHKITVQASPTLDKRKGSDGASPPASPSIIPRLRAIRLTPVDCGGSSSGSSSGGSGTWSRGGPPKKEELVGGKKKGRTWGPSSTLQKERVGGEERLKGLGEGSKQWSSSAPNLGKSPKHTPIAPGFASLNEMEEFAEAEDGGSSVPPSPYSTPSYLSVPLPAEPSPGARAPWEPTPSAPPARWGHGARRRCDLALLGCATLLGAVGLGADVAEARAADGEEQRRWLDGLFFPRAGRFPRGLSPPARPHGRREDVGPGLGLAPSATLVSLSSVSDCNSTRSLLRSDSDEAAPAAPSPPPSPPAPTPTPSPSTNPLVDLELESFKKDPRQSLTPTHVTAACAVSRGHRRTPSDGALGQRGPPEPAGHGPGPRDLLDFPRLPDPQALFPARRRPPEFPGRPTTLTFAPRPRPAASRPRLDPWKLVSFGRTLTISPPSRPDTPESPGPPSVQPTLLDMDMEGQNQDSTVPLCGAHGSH
Chain of Myosin light chain kinase family member 4 (Homo sapiens) (Q86YV6 whole entry): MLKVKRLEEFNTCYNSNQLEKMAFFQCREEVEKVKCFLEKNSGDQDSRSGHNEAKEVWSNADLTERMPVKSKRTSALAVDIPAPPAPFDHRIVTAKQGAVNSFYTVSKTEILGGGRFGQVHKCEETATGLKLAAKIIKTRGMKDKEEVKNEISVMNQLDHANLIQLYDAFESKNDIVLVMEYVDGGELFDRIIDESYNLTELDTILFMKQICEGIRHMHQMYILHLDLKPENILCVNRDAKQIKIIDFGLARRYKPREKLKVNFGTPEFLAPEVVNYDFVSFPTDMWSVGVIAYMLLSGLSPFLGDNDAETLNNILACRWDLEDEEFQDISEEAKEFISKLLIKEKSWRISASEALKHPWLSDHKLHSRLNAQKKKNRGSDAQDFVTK
Chain of Death-associated protein kinase 2 (Homo sapiens) (Q9UIK4 whole entry, looked up): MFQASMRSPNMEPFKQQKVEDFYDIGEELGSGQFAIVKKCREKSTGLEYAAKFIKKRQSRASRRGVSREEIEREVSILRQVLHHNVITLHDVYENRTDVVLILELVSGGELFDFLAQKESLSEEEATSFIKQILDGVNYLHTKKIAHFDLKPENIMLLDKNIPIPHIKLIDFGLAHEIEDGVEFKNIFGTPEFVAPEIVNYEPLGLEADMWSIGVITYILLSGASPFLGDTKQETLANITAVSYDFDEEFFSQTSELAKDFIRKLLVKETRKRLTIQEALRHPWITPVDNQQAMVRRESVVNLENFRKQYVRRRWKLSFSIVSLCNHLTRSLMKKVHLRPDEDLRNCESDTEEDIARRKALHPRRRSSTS
Chain of Citron Rho-interacting kinase (Homo sapiens) (O14578 whole entry): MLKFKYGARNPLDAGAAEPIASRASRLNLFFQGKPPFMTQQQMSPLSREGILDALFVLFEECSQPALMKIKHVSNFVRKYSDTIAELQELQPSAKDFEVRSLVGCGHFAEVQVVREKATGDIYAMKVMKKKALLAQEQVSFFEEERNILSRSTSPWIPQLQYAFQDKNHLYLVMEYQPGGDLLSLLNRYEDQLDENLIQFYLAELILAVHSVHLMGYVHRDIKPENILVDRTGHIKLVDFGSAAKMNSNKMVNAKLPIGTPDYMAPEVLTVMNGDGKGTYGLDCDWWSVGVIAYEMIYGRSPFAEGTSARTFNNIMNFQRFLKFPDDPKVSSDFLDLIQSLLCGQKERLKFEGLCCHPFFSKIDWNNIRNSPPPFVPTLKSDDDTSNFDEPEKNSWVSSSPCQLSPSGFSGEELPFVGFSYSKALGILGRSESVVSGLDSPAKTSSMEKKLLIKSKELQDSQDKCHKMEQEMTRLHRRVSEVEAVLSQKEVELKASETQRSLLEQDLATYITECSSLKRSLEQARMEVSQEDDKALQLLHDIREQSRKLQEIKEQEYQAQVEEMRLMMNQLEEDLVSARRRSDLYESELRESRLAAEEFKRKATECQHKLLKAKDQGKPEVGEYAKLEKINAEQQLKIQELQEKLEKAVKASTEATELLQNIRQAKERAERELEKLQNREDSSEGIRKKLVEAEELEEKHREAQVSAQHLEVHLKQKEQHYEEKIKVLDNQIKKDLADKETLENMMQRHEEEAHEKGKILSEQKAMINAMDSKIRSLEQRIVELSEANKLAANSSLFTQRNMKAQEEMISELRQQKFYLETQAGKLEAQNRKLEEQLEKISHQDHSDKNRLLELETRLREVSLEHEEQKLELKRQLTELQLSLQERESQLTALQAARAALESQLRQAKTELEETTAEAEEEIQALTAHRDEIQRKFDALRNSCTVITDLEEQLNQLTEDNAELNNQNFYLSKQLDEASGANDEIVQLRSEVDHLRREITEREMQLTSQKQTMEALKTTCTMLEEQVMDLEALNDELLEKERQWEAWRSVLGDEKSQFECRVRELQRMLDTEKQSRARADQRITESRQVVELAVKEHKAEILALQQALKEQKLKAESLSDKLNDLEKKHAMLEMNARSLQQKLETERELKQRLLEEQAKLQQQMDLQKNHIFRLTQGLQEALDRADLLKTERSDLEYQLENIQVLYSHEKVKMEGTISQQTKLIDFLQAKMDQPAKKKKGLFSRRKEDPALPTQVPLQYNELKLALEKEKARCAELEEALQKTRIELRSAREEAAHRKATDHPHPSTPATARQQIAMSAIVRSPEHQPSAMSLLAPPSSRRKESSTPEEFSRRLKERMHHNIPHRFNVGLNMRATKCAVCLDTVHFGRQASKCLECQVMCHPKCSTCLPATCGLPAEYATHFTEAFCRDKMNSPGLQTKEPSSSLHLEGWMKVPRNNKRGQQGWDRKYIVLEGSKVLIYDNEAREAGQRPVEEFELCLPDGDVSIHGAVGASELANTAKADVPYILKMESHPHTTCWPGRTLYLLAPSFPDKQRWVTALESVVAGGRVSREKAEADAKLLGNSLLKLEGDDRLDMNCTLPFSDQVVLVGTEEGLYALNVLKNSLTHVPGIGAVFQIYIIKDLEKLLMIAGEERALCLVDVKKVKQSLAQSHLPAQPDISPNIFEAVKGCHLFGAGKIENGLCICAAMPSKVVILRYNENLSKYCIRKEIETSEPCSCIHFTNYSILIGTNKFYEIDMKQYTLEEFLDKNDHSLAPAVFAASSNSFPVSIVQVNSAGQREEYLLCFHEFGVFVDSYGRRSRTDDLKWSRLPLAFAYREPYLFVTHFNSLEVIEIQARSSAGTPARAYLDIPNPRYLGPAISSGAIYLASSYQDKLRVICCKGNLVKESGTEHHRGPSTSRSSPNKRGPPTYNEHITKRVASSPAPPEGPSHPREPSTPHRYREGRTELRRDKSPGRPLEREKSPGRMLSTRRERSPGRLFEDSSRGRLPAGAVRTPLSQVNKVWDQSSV

Cc1c(NC(=O)c2cc(C(N)=O)nc3cc(F)ccc23)c(C(F)(F)F)nn1Cc1ccc(C(C)(C)C)cc1 [BAY-588]
inactive: residual activity [1] 85% | residual activity [2] 94% | residual activity [3] 100% | residual activity [4] 84% | residual activity [5] 94% | residual activity [6] 100% | residual activity [7] 100% | residual activity [8] 100% | residual activity [9] 76% | residual activity [10] 76% | residual activity [11] 91% | residual activity [12] 100% | residual activity [13] 100% | residual activity [14] 100% | residual activity [15] 100% | residual activity [16] 88% | residual activity [17] 100% | residual activity [18] 100% | residual activity [19] 100% | residual activity [20] 100% | residual activity [21] 76% | residual activity [22] 100% | residual activity [23] 78% | residual activity [24] 100% | residual activity [25] 78% | residual activity [26] 96% | residual activity [27] 100% | residual activity [28] 100% | residual activity [29] 100% | residual activity [30] 91% | residual activity [31] 100% | residual activity [32] 78% | residual activity [33] 100% | residual activity [34] 93% | residual activity [35] 92% | residual activity [36] 100% | residual activity [37] 100% | residual activity [38] 100% | residual activity [39] 93% | residual activity [40] 97% | residual activity [41] 89% | inhibition [42] 4.93% | inhibition [43] -3.13% | inhibition [44] 22.1% | inhibition [45] 21.2%

Cc1c(NC(=O)c2cc(C(N)=O)nc3cc(F)ccc23)c(C(F)(F)F)nn1Cc1ccc(C#N)cc1 [BAY-876]
inactive: residual activity [1] 82% | residual activity [2] 100% | residual activity [3] 75% | residual activity [4] 90% | residual activity [5] 100% | residual activity [6] 95% | residual activity [7] 82% | residual activity [8] 81% | residual activity [9] 99% | residual activity [10] 89% | residual activity [11] 85% | residual activity [12] 59% | residual activity [13] 91% | residual activity [14] 88% | residual activity [15] 67% | residual activity [16] 100% | residual activity [17] 65% | residual activity [18] 86% | residual activity [19] 83% | residual activity [20] 88% | residual activity [21] 84% | residual activity [22] 97% | residual activity [23] 88% | residual activity [24] 92% | residual activity [25] 92% | residual activity [26] 100% | residual activity [27] 78% | residual activity [28] 90% | residual activity [29] 91% | residual activity [30] 88% | residual activity [31] 92% | residual activity [32] 94% | residual activity [33] 100% | residual activity [34] 100% | residual activity [35] 100% | residual activity [36] 100% | residual activity [37] 80% | residual activity [38] 83% | residual activity [39] 90% | residual activity [40] 100% | residual activity [41] 83% | inhibition [42] 15.1% | inhibition [43] 0.483% | inhibition [44] -6.9% | inhibition [45] 28.5%
